Measurements published in US9758495B2, “Heteroaryl acid morpholinone compounds as MDM2 inhibitors for the treatment of cancer” (AMGEN INC., priority 2013, dated 2017).

These compounds were tested against GST-hMDM2 (aa 1-188) / biotinylated-p53 (aa 1-83) (Homo sapiens (Human), UniProt Q00987) (assay: Homogenous Time-Resolved Fluorescence Assay (HTRF2 assay), inhibition of HDM2-p53 interaction). Conditions: 0.2 nM GST-hMDM2 (1-188), 0.5 nM biotinylated-p53 (1-83), 0.18 nM SA-XLent, 100 mM KF.
Format: binding
Experimental: Residues 1-83 of human p53 were expressed as an amino-terminal AviTag™-TrxA-6×His fusion protein (biotinylated p53) in E. coli. Each protein was purified from cell paste by affinity chromatography.
Specifically, 10 uL of GST-hMDM2 was incubated with 10 ul of diluted compound (various concentrations, serially diluted) in 10% DMSO for 20 minutes at room temperature. 20 uL of biotinylated-p53 was added to the GST-hMDM2+compound mixture, and then incubated at room temperature for 60 min. 10 uL of detection buffer consisting of SA-XLent, anti-GST cryptate antibody and KF was added to GST-hMDM2, biotinylated-p53 and compound reaction and left at room temperature to reach equilibrium for >4 hrs. The final concentration of DMSO in the reaction was 2%. Time-resolved fluorescence readings were measured on a microplate multilabel reader. Percentage of inhibition was calculated relative to nutlin-3.

Chain of GST-hMDM2 (aa 1-188) / biotinylated-p53 (aa 1-83) (Q00987 1-188): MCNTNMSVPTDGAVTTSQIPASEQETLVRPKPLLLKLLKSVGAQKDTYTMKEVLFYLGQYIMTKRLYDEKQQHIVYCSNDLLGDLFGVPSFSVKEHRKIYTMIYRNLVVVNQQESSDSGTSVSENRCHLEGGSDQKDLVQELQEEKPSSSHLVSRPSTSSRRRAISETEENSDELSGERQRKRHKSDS

IC50 [nM]	SMILES
0.23	CC(C)(C)S(=O)(=O)C[C@H](C1CC1)N1C(=O)[C@](C)(Cc2ccc(C(=O)O)c[n+]2[O-])O[C@H](c2cccc(Cl)c2)[C@H]1c1ccc(Cl)cc1 (single isomer, unassigned) [Example 3, 2-(((2S,5R,6R)-4-((S)-2-(tert-Butylsulfonyl)-1-cyclopropylethyl)-6-(3-chlorophenyl)-5-(4-chlorophenyl)-2-methyl-3-oxomorpholin-2-yl)methyl)-5-carboxypyridine 1-oxide or 2-(((2R,5R,6R)-4-((S)-2-(tert-Butylsulfonyl)-1-cyclopropylethyl)-6-(3-chlorophenyl)-5-(4-chlorophenyl)-2-methyl-3-oxomorpholin-2-yl)methyl)-5-carboxypyridine 1-oxide]
0.121	CC(C)(C)S(=O)(=O)C[C@H](C1CC1)N1C(=O)[C@@](C)(Cc2ncc(C(=O)O)s2)O[C@H](c2cccc(Cl)c2)[C@H]1c1ccc(Cl)c(F)c1 (single isomer, unassigned) [Example 5, 2-(((2R,5R,6R)-4-((S)-2-(tert-Butylsulfonyl)-1-cyclopropylethyl)-5-(4-chloro-3-fluorophenyl)-6-(3-chlorophenyl)-2-methyl-3-oxomorpholin-2-yl)methyl)thiazole-5-carboxylic acid or 2-(((2S,5R,6R)-4-((S)-2-(tert-butylsulfonyl)-1-cyclopropylethyl)-5-(4-chloro-3-fluorophenyl)-6-(3-chlorophenyl)-2-methyl-3-oxomorpholin-2-yl)methyl)thiazole-5-carboxylic acid]
1.85	CC(C)(C)S(=O)(=O)C[C@H](C1CC1)N1C(=O)[C@@](C)(Cc2ccc(C(=O)O)c[n+]2[O-])O[C@H](c2cccc(Cl)c2)[C@H]1c1ccc(Cl)cc1 (single isomer, unassigned) [Example 4, 2-(((2R,5R,6R)-4-((S)-2-(tert-butylsulfonyl)-1-cyclopropylethyl)-6-(3-chlorophenyl)-5-(4-chlorophenyl)-2-methyl-3-oxomorpholin-2-yl)methyl)-5-carboxypyridine 1-oxide or 2-(((2S,5R,6R)-4-((S)-2-(tert-butylsulfonyl)-1-cyclopropylethyl)-6-(3-chlorophenyl)-5-(4-chlorophenyl)-2-methyl-3-oxomorpholin-2-yl)methyl)-5-carboxypyridine 1-oxide]

SMILES	IC50 [nM]
CC(C)(C)S(=O)(=O)C[C@H](C1CC1)N1C(=O)[C@@](C)(Cc2ccc(C(=O)O)cn2)O[C@H](c2cccc(Cl)c2)[C@H]1c1ccc(Cl)c(F)c1 (single isomer, unassigned) [Example 7, 6-(((2R,5R,6R)-4-((S)-2-(tert-butylsulfonyl)-1-cyclopropylethyl)-5-(4-chloro-3-fluorophenyl)-6-(3-chlorophenyl)-2-methyl-3-oxomorpholin-2-yl)methyl)nicotinic acid or 6-(((2S,5R,6R)-4-((S)-2-(tert-butylsulfonyl)-1-cyclopropylethyl)-5-(4-chloro-3-fluorophenyl)-6-(3-chlorophenyl)-2-methyl-3-oxomorpholin-2-yl)methyl)nicotinic acid]	< 0.1
CC(C)(C)S(=O)(=O)C[C@H](C1CC1)N1C(=O)[C@@](C)(Cc2ccc(C(=O)O)cn2)O[C@H](c2cccc(Cl)c2)[C@H]1c1ccc(Cl)c(F)c1 (single isomer, unassigned) [Example 6, 6-(((2R,5R,6R)-4-((S)-2-(tert-Butylsulfonyl)-1-cyclopropylethyl)-5-(4-chloro-3-fluorophenyl)-6-(3-chlorophenyl)-2-methyl-3-oxomorpholin-2-yl)methyl)nicotinic acid or 6-(((2S,5R,6R)-4-((S)-2-(tert-butylsulfonyl)-1-cyclopropylethyl)-5-(4-chloro-3-fluorophenyl)-6-(3-chlorophenyl)-2-methyl-3-oxomorpholin-2-yl)methyl)nicotinic acid]	0.11
